Laboratory results reported in paper PMC10557740 (bioRxiv, 2023).

Key:
[1] = target: HTR2A-A242S-EGFP-CT (humanized 5-hydroxytryptamine 2A receptor) (Mus musculus, UniProt P35363, A242S); test: radioligand saturation binding on cortical crude membranes
[2] = target: 5-hydroxytryptamine 2A receptor (HTR2A) (Mus musculus, UniProt P35363); type: binding
Sequence of 5-hydroxytryptamine 2A receptor (HTR2A) (P35363 whole entry): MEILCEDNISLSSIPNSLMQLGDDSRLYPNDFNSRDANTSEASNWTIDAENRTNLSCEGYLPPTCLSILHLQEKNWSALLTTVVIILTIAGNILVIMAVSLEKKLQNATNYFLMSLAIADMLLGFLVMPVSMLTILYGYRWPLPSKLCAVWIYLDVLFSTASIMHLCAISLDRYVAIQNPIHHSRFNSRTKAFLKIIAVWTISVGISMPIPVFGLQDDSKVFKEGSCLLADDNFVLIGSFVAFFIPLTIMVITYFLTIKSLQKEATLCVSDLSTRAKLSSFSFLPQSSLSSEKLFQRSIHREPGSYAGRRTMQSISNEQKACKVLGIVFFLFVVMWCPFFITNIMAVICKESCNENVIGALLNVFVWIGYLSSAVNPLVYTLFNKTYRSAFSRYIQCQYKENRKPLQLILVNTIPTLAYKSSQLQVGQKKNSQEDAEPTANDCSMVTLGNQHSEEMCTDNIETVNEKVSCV

Sequence of HTR2A-A242S-EGFP-CT (humanized 5-hydroxytryptamine 2A receptor) (P35363 1-452 A242S, other chains not shown): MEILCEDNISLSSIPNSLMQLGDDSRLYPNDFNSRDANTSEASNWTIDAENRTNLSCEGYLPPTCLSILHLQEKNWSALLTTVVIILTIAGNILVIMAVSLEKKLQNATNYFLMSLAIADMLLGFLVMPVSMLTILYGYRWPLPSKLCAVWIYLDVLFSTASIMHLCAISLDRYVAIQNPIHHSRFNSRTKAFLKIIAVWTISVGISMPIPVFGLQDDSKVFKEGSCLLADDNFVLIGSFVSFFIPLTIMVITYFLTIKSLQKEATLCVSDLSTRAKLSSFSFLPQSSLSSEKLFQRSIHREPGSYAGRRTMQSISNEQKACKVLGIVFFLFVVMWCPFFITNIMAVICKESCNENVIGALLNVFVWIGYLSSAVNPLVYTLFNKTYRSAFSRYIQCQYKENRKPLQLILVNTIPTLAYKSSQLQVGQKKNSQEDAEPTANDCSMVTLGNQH

- Kd [1]: 2.38 ± 1.48 nM
- Kd [2]: 1.09 ± 0.324 nM
SMILES: O=C(c1ccc(F)cc1)C1CCN(CCn2c(=O)[nH]c3ccccc3c2=O)CC1 [[3H]-ketanserin]
